Each structure is given as a SMILES string. Where two headings read alike, the source gives them in different places.

This is an account of results in patent publication US20130231377A1, “PACTAMYCIN ANALOGS AND METHODS OF USE” (State of Oregon acting by and through the state Board of …, priority 2010, published 2013).

For data set [1], the system named is chloroquine-resistant and MDR clone Dd2 of P. falciparum. The experiment in a line: Antimalarial activity assay, SYBR Green I fluorescence-based method. The format is cell-based, Plasmodium falciparum. The following applies: Plasmodium falciparum, DD2, 72 h; for IC50: read-out: Antimalarial IC50 (Dd2); for IC90: read-out: Antimalarial IC90 (Dd2). The procedure: (§1) An antimalarial activity assay was carried out at the Oregon Translational Research and Drug Development Institute (OTRADI). Two strains of P. falciparum were used. The chloroquine-sensitive clone D6, and chloroquine-resistant and MDR clone Dd2 was obtained from the Malaria Research and Reference Reagent Resource Center (MR4) (Manassas, Va.). The parasites were cultured according to the method of Trager and Jensen (Trager and Jensen, Science, 1976, 193:673-675), with minor modifications. The cultures were maintained in human erythrocytes (Lampire Biological Laboratories, Pipersville, Pa.), suspended at 2% hematocrit in RPMI 1640 (Sigma) containing 0.5% Albumax (Invitrogen), […] hypoxanthine (Lancaster), and 50 μg/L gentamicin (Invitrogen), and incubated at 37° C. under a gas mixture of 5% O2, 5% CO2, and 90% N2. In vitro antimalarial activity was determined by a SYBR Green I fluorescence-based method described previously by Smilkstein et al. (Smilkstein et al., Antimicrob. Agents Chemother., 2004, 48:1803-1806). Frozen stock solutions of each test drug (1 mM in DMSO) were thawed, warmed to 37° C., and mixed thoroughly prior to use. Drug solutions were serially diluted with culture medium, and distributed to asynchronous parasite cultures on 96-well plates in quadruplicate in a total volume of 100 μL to achieve 0.2% parasitemia with a 2% hematocrit in a total volume of 100 μL. Automated pipeting and dilution was carried using programmable Precision XS (Bio-Tek, Winooski, Vt.) and Sciclone ALH3000 (Caliper, Hopkinton, Mass.) robotic stations. The plates then were incubated for 72 hours at temperature and gas conditions described above. After incubation, 100 μL of lysis buffer with SYBR Green I was added to each well. The plates were incubated at room temperature for 1 h and then placed in a 96-well fluorescence plate reader (Synergy4, BioTek, Winooski, Vt.) with excitation and emission wavelength at 485 nm and 528 nm, respectively, for measurement of fluorescence. The 50% inhibitory concentration (IC50) was determined by non-linear regression analysis of logistic dose-response curves (GraphPad Prism software).

The test system of data set [2] is chloroquine-sensitive clone D6 of P. falciparum. The description is as above. The format is cell-based, Plasmodium falciparum. The following applies: Plasmodium falciparum, D6, 72 h; for IC50: read-out: Antimalarial IC50 (D6); for IC90: read-out: Antimalarial IC90 (D6). The procedure:
as §1

For data set [3], the system named is Mycobacterium smegmatis. The data set is described as follows: Antibacterial agar diffusion assay (Example 2). The data set is classed as cell-based. The method, then:
(§2) Antibacterial activity of pactamycin and its analogues was determined by an agar diffusion assay. E. coli, Pseudomonas aeruginosa, Mycobacterium smegmatis, and Staphylococcus aureus were streaked on nutrient agar (Difco) and grown overnight at 37° C. Colonies were transferred to nutrient broth and incubated at 37° C. for 24 hours. Turbidity of the inoculum was measured to a proper density at 600 nm (BioRad, SmartSpec 3000). For plate preparation, inoculum (500 μL) was mixed thoroughly with warm nutrient agar (50 mL) and poured to 25 mL square plates. The agar plates were allowed to solidify and dry for 30 minutes before assay. Sterile blank paper disks (Becton-Dickinson) were impregnated with pactamycin and its analogues (20 μL) at various concentrations and dried at room temperature. The disks were placed onto inoculated agar plates and incubated at 37° C. for 24 hours. In order to produce a contrast background of the inhibition zone, 0.25% MTT developing dye (1 mL) was added over the plates.

Data set [4] relates to Pseudomonas aeruginosa. The data set is described as follows: Antibacterial agar diffusion assay (Example 2). The format is cell-based. The procedure: as §2
Data set [5] deals with Staphylococcus aureus. The data set is described as follows: Antibacterial agar diffusion assay (Example 2). The data set is classed as cell-based. The procedure: as §2
In data set [6] the test system is E. coli. The data set is described as follows: Antibacterial agar diffusion assay (Example 2). The format is cell-based, Escherichia coli. The procedure: as §2
Background: Agar diffusion results depend on both activity and mobility in agar.

Data set [7] relates to human colon cancer HT-29 cells. The experiment in a line: MTT cell viability assay in HT-29 cells. The following applies: HT-29 cells, 24-hour. The data set is classed as cell-based. The procedure: The MTT assay was carried out as described by Mosmann (J. Immunol. Methods, 1983, 65:55). Briefly, human colon cancer HT-29 cells (ATCC) were seeded in 96-well plates at a density of 1.0×10^4 cells per well. The growth medium consisted of phenol red-free RPMI 1640 (Invitrogen, Carlsbad, Calif.) containing 10% fetal bovine serum (Invitrogen, Carlsbad, Calif.), glutamine (2 mM), penicillin (100 units/mL) and streptomycin (100 μg/mL). After a 24-hour incubation at 37° C. in a humidified atmosphere of 5% CO2, the medium was removed and replaced with fresh RPMI 1640 medium (with or without 10% FBS and no penicillin or streptomycin). Increasing concentrations of pactamycin, pactamycate, de-6MSA pactamycin, or de-6MSA-pactamycate dissolved in DMSO were added to cells at a volume of 0.2 mL/well. DMSO was added to control media not to exceed a final concentration of 1%. Following a 24-hour incubation, the medium was aspirated from each well and replaced with fresh RPMI medium with 10% FBS and MTT (0.5 mg/mL). […] The plate was shaken for 10 minutes before reading the absorbance at 570 nm using a microplate reader (SpectraMax 250, Molecular Devices, Sunnyvale, Calif., USA). The viability of treated cells was expressed as the percentage of control cells. […]

Data set [8] has as its system HT-29 human colon carcinoma cells. The data set is described as follows: SRB growth inhibition assay in HT-29 cells. The format is cell-based. The procedure: Growth inhibition of HT-29 cells induced by the test compounds was also evaluated by the SRB assay, which is based on measuring total biomass by staining the cellular proteins with sulforhodamine B (Skehan et al., J. Natl. Cancer Inst., 1990, 82:1107). After treating the HT-29 cells with the compounds for 24 hours, the adherent cells grown in 96-well plates were fixed with 10% trichloroacetic acid and incubated for 1 hour at 4° C. The plates were washed five times with tap water, dried, and stained with SRB solution (0.4% wt/vol in 1% acetic acid) for 30 minutes at room temperature. The plates were again washed and dried before adding 10 mM Tris base to solubilize the bound stain. Optical densities (OD) were read at 564 nm in SpectraMax 250 and cell growth of treated cells was expressed as the percentage of control cells, ODtest/ODcontrol×100%.

In data set [9] the test system is Bacillus subtilis. The data set is described as follows: Antibacterial micro-dilution assay (Example 1). The data set is classed as cell-based. The note with it: 24 hours, read-out: IC50 against Bacillus subtilis. The procedure: (§3) The antibacterial activity of pactamycin and its analogs was determined by agar diffusion and micro-dilution assays. E. coli, P. aeruginosa, B. subtilis or M. smegmatis, and S. aureus were streaked on nutrient agar (Difco or Beckton-Dickinson) and grown overnight at 37° C. Colonies were transferred to nutrient broth and incubated at 37° C. for 24 hours. Turbidity of the inoculum was measured to a proper density at 600 nm (BioRad, SmartSpec 3000). For plate preparation, inoculum (500 μL) was mixed thoroughly with warm nutrient agar (50 mL) and poured to 25 mL square plates. The agar plates were allowed to solidify and dry for 30 min before assay. Sterile blank paper disks (Becton-Dickinson) were impregnated with pactamycin and its analogs (20 μL) at various concentrations and dried at room temperature. The disks were placed onto inoculated agar plates and incubated at 37° C. for 24 hours. In order to produce a contrast background of the inhibition zone, 0.25% MTT developing dye (1 mL) was added over the plates.
(§4) Micro-dilution assays were performed in 96-well plates. The compounds were serially diluted and added to the bacterial suspension at final concentrations of 1 mM-10 nM, or 0.5 mM-10 nM. After incubation at 37° C. for 24 hours, 0.25% MTT developing dye (50 μL) was added. Each assay was done in triplicate.
For orientation: Broth dilution looks for growth in wells or tubes with falling amounts of substance.

Data set [10] concerns Escherichia coli. The experiment in a line: Antibacterial micro-dilution assay (Example 1). The format is cell-based. The following applies: 24 hours, read-out: IC50 against Escherichia coli. The procedure: as §3, §4
The subject of data set [11] is Pseudomonas aeruginosa. The data set is described as follows: Antibacterial micro-dilution assay (Example 1). The data set is classed as cell-based. The following applies: 24 hours, read-out: IC50 against Pseudomonas aeruginosa. The procedure: as §3, §4
Data set [12] concerns Staphylococcus aureus. The experiment in a line: Antibacterial micro-dilution assay (Example 1). The following applies: 24 hours, read-out: IC50 against Staphylococcus aureus. The format is cell-based. The procedure: as §3, §4
The test system of data set [13] is Gram-positive and Gram-negative bacteria. The data set is described as follows: Antibacterial agar diffusion and micro-dilution assays, all tested strains (Example 1). The data set is classed as cell-based, S. aureus, B. subtilis, P. aeruginosa, E. coli. The note with it: at the concentrations used. The procedure: as §3, §4
A short description of data set [14]: Cytotoxicity assay (WST-8) against HCT116 cells. The note with it: human, HCT116 colorectal carcinoma cells, estimated. The format is cell-based. The method, then: HCT116 (colorectal carcinoma) cells were seeded onto a 96-well plate at 10,000 cells per well. Cells were treated with either 5, 50, 500 or 5000 nM TM-025, TM-026, N-acetyl-glucosaminyl-3-aminoacetophenone or 5, 25, 50, 100 nM pactamycin in triplicate for 48 hours. For the narrow range concentration assays, cells were treated with either 0.5, 1, 2 or 4 μM TM-025; 1, 2, 3 or 5 μM TM-026; 0.5, 2, 5 or 7 μM N-acetylglucosaminyl-3-aminoacetophenone or 12.5, 25, 50, 100 nM pactamycin in triplicate for 24 or 48 hours. WST-8 [2-(2-methoxy-4-nitrophenyl)-3-[…], monosodium salt] (Dojindo, Rockville, Md.) was added to each well to give an orange-colored formazan product, which is soluble in tissue culture medium. Absorbance was measured at 450 nm. Percent of viable cells was calculated relative to the “No Treatment” and “Solvent Only” wells.

In general, IC50 refers to the concentration that gives 50% inhibition. By IC90 is commonly meant the point of the concentration-response curve where the effect stands at 90%. As for `CC(=O)c1cccc(N[C@H]2[C@H](N)[C@]3(NC(=O)O[C@H]3C)[C@@](C)(O)[C@@]2(O)COC(=O)c2c(C)cccc2O)c1` [pactamycate, reference compound], the IC50 in data set [1] and in data set [2] was around 300 nM throughout. The IC90 in data set [1] and in data set [2] was around 800 nM in each case. Moreover, in data set [3], the “antibacterial activity, growth of Mycobacterium smegmatis” value was “no antibacterial activity”. Moreover, in data set [4], the “antibacterial activity, growth of Pseudomonas aeruginosa” value is recorded as “no antibacterial activity”. In addition, the “antibacterial activity, growth of Staphylococcus aureus” value in data set [5] is given as “no antibacterial activity”. Further, in data set [6], the “antibacterial activity, growth of E. coli” value is recorded as “no antibacterial activity”. The “cytotoxicity profile (MTT-based assay)” value in [7] was “reduced cytotoxicity profile”. Further, in [8], the “cytotoxicity profile (SRB-based assay)” value was “reduced cytotoxicity profile”.

Consider `CC(=O)c1cccc(N[C@H]2[C@H](N)[C@@](NC(=O)N(C)C)([C@H](C)O)[C@@](C)(O)[C@@]2(O)COC(=O)c2c(C)cccc2O)c1` [pactamycin], for which the IC50 was around 21 nM in [1] (P. falciparum Dd2, 72 hours); around 24 nM in data set [2] (P. falciparum D6, 72 hours); around 500000 nM in [9]; around 100000 nM in data set [10]; around 500000 nM in [11]; around 10000 nM in data set [12]. Further, in data set [14], the IC50 was around 100 nM. Besides, the IC90 was found to be 187 nM in [1] (P. falciparum Dd2, 72 hours) and 124 nM in data set [2] (P. falciparum D6, 72 hours). The “antibacterial activity in agar diffusion and micro-dilution assays (in words)” value in data set [13] was “strong antibacterial activity”. In addition, in data set [3], the “antibacterial activity, growth of Mycobacterium smegmatis” value is given as “inhibited the growth”. Besides, the “antibacterial activity, growth of Pseudomonas aeruginosa” value in data set [4] is “inhibited the growth”. The “antibacterial activity, growth of Staphylococcus aureus” value in data set [5] is reported as “inhibited the growth”. Further, the “antibacterial activity, growth of E. coli” value in data set [6] is “inhibited the growth”.
